Measured values from the Kinase Knowledgebase extract (Sharma et al. 2016).
pIC50: −log10 of the molar value.

Each compound was assayed against EGFR (human) (UniProt P00533). Settings: hcc827.
EGFR (human), sequence (P00533 whole entry, looked up): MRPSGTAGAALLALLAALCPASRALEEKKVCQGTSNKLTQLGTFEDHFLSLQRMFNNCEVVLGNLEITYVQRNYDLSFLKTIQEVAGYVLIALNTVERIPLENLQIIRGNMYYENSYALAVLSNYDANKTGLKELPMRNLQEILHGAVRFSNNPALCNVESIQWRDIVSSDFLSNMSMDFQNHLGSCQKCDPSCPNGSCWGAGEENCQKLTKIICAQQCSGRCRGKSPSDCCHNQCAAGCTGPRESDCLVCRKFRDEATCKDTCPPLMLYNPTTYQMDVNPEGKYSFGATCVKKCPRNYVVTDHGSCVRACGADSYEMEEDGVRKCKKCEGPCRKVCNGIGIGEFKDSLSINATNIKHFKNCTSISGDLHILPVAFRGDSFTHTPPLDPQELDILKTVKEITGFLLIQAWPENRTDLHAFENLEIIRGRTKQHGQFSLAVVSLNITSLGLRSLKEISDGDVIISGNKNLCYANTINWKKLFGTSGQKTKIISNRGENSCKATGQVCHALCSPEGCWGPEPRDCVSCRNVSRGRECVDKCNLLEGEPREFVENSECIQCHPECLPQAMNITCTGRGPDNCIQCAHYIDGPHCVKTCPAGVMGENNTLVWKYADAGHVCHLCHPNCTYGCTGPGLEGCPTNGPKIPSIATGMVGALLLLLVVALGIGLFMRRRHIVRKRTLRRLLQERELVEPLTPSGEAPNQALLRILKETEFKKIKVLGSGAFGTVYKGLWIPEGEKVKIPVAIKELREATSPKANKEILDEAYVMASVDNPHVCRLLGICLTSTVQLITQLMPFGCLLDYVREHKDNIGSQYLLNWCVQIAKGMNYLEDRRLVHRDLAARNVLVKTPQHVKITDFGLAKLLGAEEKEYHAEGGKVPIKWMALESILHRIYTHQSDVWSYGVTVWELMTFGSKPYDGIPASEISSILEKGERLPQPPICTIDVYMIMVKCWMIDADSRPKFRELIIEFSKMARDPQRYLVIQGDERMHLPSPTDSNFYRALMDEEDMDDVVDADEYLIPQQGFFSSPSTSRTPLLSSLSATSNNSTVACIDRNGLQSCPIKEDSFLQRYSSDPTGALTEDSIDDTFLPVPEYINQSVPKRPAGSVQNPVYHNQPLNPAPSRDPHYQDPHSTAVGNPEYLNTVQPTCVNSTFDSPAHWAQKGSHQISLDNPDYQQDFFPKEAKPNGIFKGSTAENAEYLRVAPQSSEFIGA
Compound `C=CC(=O)Nc1cccc(-c2coc3ncnc(N[C@H](CO)c4ccccc4)c23)c1` has a pIC50 of 6.00 to 6.52.
Compound `OC[C@@H](Nc1ncnc2sc3c(c12)CCC3)c1ccccc1` has a pIC50 of 6.00 to 6.52.
Work on `CCOC(=O)[C@@H](Nc1ncnc2oc(-c3ccccc3)c(-c3ccccc3)c12)c1ccccc1` yielded a pIC50 of 6.00 to 6.52.
`CC(=O)Nc1ccc(-c2c(-c3ccccc3)oc3ncnc(N[C@H](CO)c4ccccc4)c23)cc1` showed a pIC50 of 6.52 to 7.00.

These compounds were tested against EGFR (human), P00533 [WT]. Settings: not given.
EGFR (human), P00533 [WT], sequence (P00533 whole entry, looked up): as above
For `CC[C@@H](Nc1ncnc2sc3c(c12)CCCC3)c1ccccc1`, the pIC50 was 6.05 to 7.00.
Compound `CCN(CC)C/C=C/C(=O)N1CCc2c(sc3ncnc(N[C@H](CO)c4ccccc4)c23)C1` has a pIC50 of over 7.23.
With `C[C@@H](Nc1ncnc2sc3c(c12)CCN(C(=O)/C=C/CN=[N+]=[N-])C3)c1ccccc1` the pIC50 was over 7.23.
In the case of `C[C@@H](Nc1ncnc2sc3c(c12)CCN(C(=O)/C=C/CN(CCO)CCO)C3)c1ccccc1`, the pIC50 was over 7.23.
Work on `C=CC(=O)Nc1cccc(-c2csc3ncnc(N[C@H](CO)c4ccccc4)c23)c1` yielded a pIC50 of over 7.23.
Compound `CCN(CC)C/C=C/C(=O)N1CCc2c(sc3ncnc(N[C@H](COC)c4ccccc4)c23)C1` has a pIC50 of 7.00 to 7.22.
`C=CC(=O)Nc1ccc(-c2c(-c3ccccc3)oc3ncnc(N[C@H](C)c4ccccc4)c23)cc1` gave a pIC50 of 6.05 to 7.00.
In the case of `CC(=O)OC[C@@H](Nc1ncnc2sc3c(c12)CCN(C(=O)/C=C/CN(C)C)C3)c1ccccc1`, the pIC50 was over 7.23.
Work on `COc1ccc(-c2oc3ncnc(N[C@H](CO)c4ccccc4)c3c2-c2ccc(OC)cc2)cc1` yielded a pIC50 of 7.00 to 7.22.
For `O=C(/C=C/CN1CCCCC1)N1CCc2c(sc3ncnc(N[C@H](CO)c4ccccc4)c23)C1`, the pIC50 was over 7.23.
`C=CC(=O)N1CCc2c(sc3ncnc(N[C@H](CCO)c4ccccc4)c23)C1` gave a pIC50 of over 7.23.
Compound `C=CC(=O)N1CCc2c(sc3ncnc(N[C@@H](CCO)c4ccccc4)c23)C1` has a pIC50 of 6.05 to 7.00.
`COCCN(C)C/C=C/C(=O)N1CCc2c(sc3ncnc(N[C@H](CO)c4ccccc4)c23)C1` gave a pIC50 of over 7.23.
For `CCN(CC)C/C=C/C(=O)N1CCc2c(sc3ncnc(N[C@H](C)c4ccccc4)c23)C1`, the pIC50 was over 7.23.
For `CN(C)C/C=C/C(=O)N1CCc2c(sc3ncnc(N[C@H](CO)c4ccccc4)c23)C1`, the pIC50 was over 7.23.
For `C[C@@H](Nc1ncnc2sc3c(c12)CCN(C(=O)/C=C/CN(C)C)C3)c1ccc(Br)cc1`, the pIC50 was over 7.23.
`CC(=O)Nc1cccc(-c2c(-c3ccccc3)oc3ncnc(N[C@H](CO)c4ccccc4)c23)c1` showed a pIC50 of 6.05 to 7.00.
Work on `O=C(O)/C=C\C(=O)N1CCc2c(sc3ncnc(N[C@H](CO)c4ccccc4)c23)C1` yielded a pIC50 of 6.05 to 7.00.
`CN(C)C/C=C/C(=O)N1CCc2c(sc3ncnc(N[C@H](CO[Si](C)(C)C(C)(C)C)c4ccccc4)c23)C1` was tested, and the pIC50 was 7.00 to 7.22.
In the case of `O=C(O)[C@@H](Nc1ncnc2sc3c(c12)CCC3)c1ccccc1`, the pIC50 was 6.05 to 7.00.
Work on `CC#CC(=O)Nc1cccc(-c2c(-c3ccccc3)oc3ncnc(N[C@H](CO)c4ccccc4)c23)c1` yielded a pIC50 of over 7.23.
`CN(C)C/C=C/C(=O)N1CCc2c(sc3ncnc(N[C@H](COCc4ccccc4F)c4ccccc4)c23)C1` gave a pIC50 of over 7.23.
`C/C=C/C(=O)N1CCc2c(sc3ncnc(N[C@H](COCc4cccc(F)c4)c4ccccc4)c23)C1` gave a pIC50 of 7.00 to 7.22.
`C=CC(=O)N1CCc2c(sc3ncnc(N[C@H](COCc4ccccc4)c4ccccc4)c23)C1` gave a pIC50 of over 7.23.
Compound `C=CC(=O)N1CCc2c(sc3ncnc(N[C@H](COCc4cccc(F)c4)c4ccccc4)c23)C1` has a pIC50 of over 7.23.
In the case of `CN(C)C/C=C/C(=O)Nc1cccc(-c2c(-c3ccccc3)oc3ncnc(N[C@H](CO)c4ccccc4)c23)c1`, the pIC50 was over 7.23.
For `CCN(C/C=C/C(=O)N1CCc2c(sc3ncnc(N[C@H](C)c4ccccc4)c23)C1)CCO`, the pIC50 was over 7.23.
Work on `C=CC(=O)Nc1cccc(-c2c(-c3ccccc3)oc3ncnc(N[C@H](COC(=O)C=C)c4ccccc4)c23)c1` yielded a pIC50 of 6.05 to 7.00.
`C[C@@H](Nc1ncnc2sc3c(c12)CCN(C(=O)/C=C/CN(C)CCO)C3)c1ccccc1` was tested, and the pIC50 was over 7.23.
`OC[C@@H](Nc1ncnc2sc(-c3ccccc3)c(Cl)c12)c1ccccc1` gave a pIC50 of 6.05 to 7.00.
`CN(C)C/C=C/C(=O)N1CCc2c(sc3ncnc(N[C@H](COCc4ccccn4)c4ccccc4)c23)C1` gave a pIC50 of over 7.23.
With `C=CC(=O)N1CCc2c(sc3ncnc(N[C@H](CC)c4ccccc4)c23)C1` the pIC50 was over 7.23.
Work on `O=C(/C=C/CN1CCOCC1)N1CCc2c(sc3ncnc(N[C@H](CO)c4ccccc4)c23)C1` yielded a pIC50 of over 7.23.
In the case of `OC[C@@H](Nc1ncnc2sc(-c3ccccc3)cc12)c1ccccc1`, the pIC50 was 6.05 to 7.00.
With `COc1ccc(-c2c(-c3ccccc3)oc3ncnc(N[C@H](CO)c4ccccc4)c23)cc1` the pIC50 was 6.05 to 7.00.
Compound `CNC/C=C/C(=O)N1CCc2c(sc3ncnc(N[C@H](C)c4ccccc4)c23)C1` has a pIC50 of over 7.23.
Work on `CCC[C@@H](Nc1ncnc2sc3c(c12)CCN(C(=O)/C=C/CN(C)C)C3)c1ccccc1` yielded a pIC50 of over 7.23.
`CN(C)C/C=C/C(=O)N1CCc2c(sc3ncnc(N[C@H](CO)Cc4ccccc4)c23)C1` gave a pIC50 of 6.05 to 7.00.
In the case of `OC[C@@H](Nc1ncnc2oc(-c3ccccc3)c(-c3ccoc3)c12)c1ccccc1`, the pIC50 was 6.05 to 7.00.
`OC[C@@H](Nc1ncnc2sc3c(c12)CCCC3)c1ccccc1` gave a pIC50 of 6.05 to 7.00.
For `C=CC(=O)N1CCc2c(sc3ncnc(N[C@H](COCc4cccc(OC)c4)c4ccccc4)c23)C1`, the pIC50 was over 7.23.
`OC[C@@H](Nc1ncnc2oc(-c3ccccc3)c(-c3ccco3)c12)c1ccccc1` was tested, and the pIC50 was 6.05 to 7.00.
Compound `CC#CC(=O)Nc1cccc(-c2c(-c3ccccc3)oc3ncnc(N[C@H](COC)c4ccccc4)c23)c1` has a pIC50 of 6.05 to 7.00.
In the case of `OC[C@@H](Nc1ncnc2oc(-c3ccccc3)c(Cl)c12)c1ccccc1`, the pIC50 was 6.05 to 7.00.
Work on `C=CC(=O)Nc1cccc(-c2cc3c(N[C@H](CO)c4ccccc4)ncnc3s2)c1` yielded a pIC50 of over 7.23.
With `C=C(CN(C)C)C(=O)N1CCc2c(sc3ncnc(N[C@H](CO)c4ccccc4)c23)C1` the pIC50 was 6.05 to 7.00.
`CN(C)C/C=C/C(=O)N1CCc2c(sc3ncnc(N[C@H](CCOCc4ccccc4F)c4ccccc4)c23)C1` gave a pIC50 of over 7.23.
For `C=CC(=O)Nc1cccc(-c2c(-c3ccccc3)oc3ncnc(N(C)[C@H](COC)c4ccccc4)c23)c1`, the pIC50 was 6.05 to 7.00.
Compound `O=C(O)[C@@H](Nc1ncnc2sc(-c3ccccc3)cc12)c1ccccc1` has a pIC50 of 6.05 to 7.00.
For `O=C(O)[C@@H](Nc1ncnc2sc3c(c12)CCCC3)c1ccccc1`, the pIC50 was 6.05 to 7.00.
For `CCN(CC)C/C=C/C(=O)N1CCc2c(sc3ncnc(N[C@H](CCO)c4ccccc4)c23)C1`, the pIC50 was over 7.23.
For `CC(=O)OC/C=C/C(=O)N1CCc2c(sc3ncnc(N[C@H](C)c4ccccc4)c23)C1`, the pIC50 was over 7.23.
With `CN(C)C/C=C/C(=O)N1CCc2c(sc3ncnc(N[C@H](COCc4ccncc4)c4ccccc4)c23)C1` the pIC50 was over 7.23.
`C=CC(=O)Nc1ccc(-c2nc3c(N[C@H](CO)c4ccccc4)ncnc3o2)cc1` showed a pIC50 of 6.05 to 7.00.
Work on `C=CC(=O)N1CCc2c(sc3ncnc(N[C@H](CO[Si](C)(C)C(C)(C)C)c4ccccc4)c23)C1` yielded a pIC50 of 6.05 to 7.00.
For `C=CC(=O)Nc1ccc(-c2c(-c3ccccc3)oc3ncnc(N[C@H](CO)c4ccccc4)c23)cc1`, the pIC50 was 7.00 to 7.22.
`CC(C)NC/C=C/C(=O)N1CCc2c(sc3ncnc(N[C@H](C)c4ccccc4)c23)C1` was tested, and the pIC50 was 6.05 to 7.00.
For `COC[C@@H](Nc1ncnc2sc3c(c12)CCN(C(=O)/C=C/CN(C)C)C3)c1ccccc1`, the pIC50 was over 7.23.
`C[C@@H](Nc1ncnc2sc3c(c12)CCN(C(=O)/C=C/CNN1CCCCC1)C3)c1ccccc1` showed a pIC50 of over 7.23.
Work on `CN(C)C/C=C/C(=O)N1CCc2c(sc3ncnc(N[C@H](CCO)c4ccccc4)c23)C1` yielded a pIC50 of over 7.23.
`CN(C)C/C=C/C(=O)N1CCc2c(sc3ncnc(N[C@H](COCc4cccnc4)c4ccccc4)c23)C1` gave a pIC50 of over 7.23.
`C[C@@H](Nc1ncnc2sc3c(c12)CCN(C(=O)/C=C/CNc1ccccc1)C3)c1ccccc1` showed a pIC50 of 6.05 to 7.00.
For `CN(C)C/C=C/C(=O)N1CCc2c(sc3ncnc(N[C@H](COCc4ccc(F)cc4)c4ccccc4)c23)C1`, the pIC50 was over 7.23.
`O=C(O)[C@@H](Nc1ncnc2oc(-c3ccccc3)c(-c3ccccc3)c12)c1ccccc1` gave a pIC50 of over 7.23.
`OC[C@@H](Nc1ncnc2oc(-c3ccccc3)c(-c3ccccc3)c12)c1ccccc1` was tested, and the pIC50 was 6.05 to 7.00.
Compound `C=CC(=O)Nc1cccc(-c2coc3ncnc(N[C@H](CO)c4ccccc4)c23)c1` has a pIC50 of 7.00 to 7.22.
`CC(=O)Nc1ccc(-c2c(-c3ccccc3)oc3ncnc(N[C@H](CO)c4ccccc4)c23)cc1` gave a pIC50 of 7.00 to 7.22.
`O=C(O)[C@@H](Nc1ncnc2oc(-c3ccccc3)c(Br)c12)c1ccccc1` showed a pIC50 of over 7.23.
